Results on 8 molecules are retold here after PubChem BioAssay (NCI).

Holding throughout (experiment): growth of human tumour cells (NCI), 48 h
The test system of test [1] is A549 NSCLC.
The test system of test [2] is BT-549 breast.
In test [3] the test system is CAKI-1 renal.
In test [4] the test system is EKVX NSCLC.
The subject of test [5] is HCT-116 colon.
In test [6] the test system is HOP-92 NSCLC.
Test [7] concerns HT29 colon.
For test [8], the system named is LOX IMVI melanoma.
For test [9], the system named is M14 melanoma.
Test [10] deals with NCI-H23 lung.
Test [11] has as its system NCI-H522 lung.
Test [12] concerns RPMI-8226 leukemia.
Test [13] deals with RXF 393 renal.
Test [14] relates to SNB-19 CNS.
Test [15] relates to T-47D breast.
In test [16] the test system is UO-31 renal.

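Cells were grown in 96-well plates and exposed to each compound for 48 hours at five concentrations; endpoints were interpolated linearly between bracketing concentrations, or set to the highest concentration if not reached. Definition used: TGI = concentration required for complete inhibition of growth.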 *1 amine or outer side, *2 acyl side, *3 side chain or, on linkers, in order; H or OH if unused. Where a SMILES comes first, the peptide text is derived from it. Bridges are numbered along the chain shown (N, C = ends). [ ]: non-standard residue; d: D form. X59 = COc1c(N[*:1])cccc1C(=O)O[C@H](C(=O)[C@H](C)C(=O)[*:2])C(C)C; X58 = CC(C)C[C@H](C(=O)[*:2])C(C)C(=O)C1CCCN1[*:1]; NMeY = CN[C@@H](Cc1ccc(O)cc1)C(=O)O; Lac = C[C@H](O)C(=O)O

Regarding `CC(CC(C)[C@H]1CCC2[C@H]3C(CC(=O)[C@@]21C)[C@@]1(C)CCC(O)C[C@H]1C[C@@H]3O)C(=O)O` (stereo partly drawn), the TGI in test [1], in test [2], in test [3], in test [4], in test [5] and in [6] was above 100 µM throughout. Further, the TGI in test [7], in [8], in test [9], in [10], in test [11] and in [12] was above 100 µM each time. For the same molecule, the TGI in test [13], in [14], in test [15] and in [16] was above 100 µM throughout.

For `COc1cc(/C=C2\C(=O)N(c3ccc(NC(C)=O)cc3)C(c3ccccc3)S2(=O)=O)cc(OC)c1OC` (stereo not drawn), the TGI in [1], in [2], in test [3], in test [4], in test [5] and in test [6] was above 100 µM throughout. Moreover, the TGI in [7], in [8], in test [9], in [10], in test [11] and in [12] was above 100 µM each time. The TGI in [13], in test [14], in [15] and in test [16] was above 100 µM throughout.

As to `CC(C)=CC[C@H]1C[C@@]2(CC=C(C)C)C(=O)/C(=C(/O)c3ccccc3)C(=O)[C@](CC=C(C)C)(C2=O)C1(C)C`, the TGI in [1] is 23.7 µM; in test [2], 35 µM; in [3], 28.9 µM; in [4] it was 20 µM; in [5], 14.5 µM; in test [6], 19.1 µM. The TGI in [7] is 23.4 µM; in [8], 17 µM; in test [9] it was 25.2 µM; in test [10], 73.9 µM; in [11], 32.5 µM; in test [12], above 100 µM. Moreover, the TGI came to 24.1 µM in [13], 20.4 µM in test [14], 35.2 µM in test [15] and 13.3 µM in test [16].

Regarding `O=C1Nc2ccccc2/C1=N/N1C(=O)/C(=C/c2ccccc2S)N=C1c1ccccc1`, the TGI in test [1], in [2], in test [3], in [4], in [5] and in test [6] was above 100 µM in each case. Further, the TGI in test [7], in [8], in test [9], in [10], in test [11] and in test [12] was above 100 µM each time. Moreover, the TGI in test [13] is above 100 µM; in [14] it was above 100 µM; in [15], 81.8 µM; in test [16], above 100 µM.

As to `COc1ccc(C[C@H]2C(=O)O[C@H](C)[C@H](NC(=O)[C@@H](CC(C)C)C(C)C(=O)C3CCCN3C(=O)[C@H](C)O)C(=O)Nc3cccc(c3OC)C(=O)O[C@@H](C(C)C)C(=O)[C@H](C)C(=O)N[C@@H](CC(C)C)C(=O)N3CCC[C@H]3C(=O)N2C)cc1` (stereo partly drawn) (H-[Lac][X58]T[X59]LP[NMeY](Me); ester 3-C), the TGI in test [1], in [2], in test [3], in test [4], in test [5] and in test [6] was above 12.5 µM throughout. Further, the TGI in test [7] was above 12.5 µM; in [8] it was above 12.5 µM; in [9] it was above 12.5 µM; in test [10], above 12.5 µM; in test [11], above 12.5 µM; in [12], 10.8 µM. The TGI in test [13], in test [14], in [15] and in [16] was above 12.5 µM throughout.

Take `CC1=NN(C(=O)CC(=O)Nc2ccc(Cl)cc2)C(=O)C1N=Nc1ccc(S(=O)(=O)c2ccc(N=NC3C(=O)N(C(=O)CC(=O)Nc4ccc(Cl)cc4)N=C3C)cc2)cc1` (stereo not drawn): the TGI in test [1], in [2], in test [3], in test [4], in [5] and in test [6] was above 100 µM throughout. Besides, the TGI in [7], in [8], in [9], in [10], in test [11] and in test [12] was above 100 µM each time. The TGI in test [13], in [14], in test [15] and in test [16] was above 100 µM throughout.

Consider `O=C(c1ccc(Cl)c(Cl)c1)N(C(=O)N1CCN(c2ccccc2)CC1)S(=O)(=O)c1ccccc1`, for which the TGI in test [1] was above 100 µM; in test [2], above 100 µM; in test [3], above 100 µM; in test [4], above 100 µM; in test [5] it was 86.8 µM; in test [6], 84.4 µM. The TGI is above 100 µM in [7]; 40.5 µM in test [8]; above 100 µM in test [9]; 96.2 µM in [10]; 39.7 µM in test [11]; above 100 µM in test [12]. Moreover, the TGI in [13] was above 100 µM; in [14], above 100 µM; in test [15] it was above 100 µM; in test [16], 50.3 µM.

As for `Nc1ncc(N)c(NCC2(CO)CC(CCc3ccccc3)C2)n1` (stereo not drawn), the TGI came to 28.8 µM in test [1]; 23.1 µM in test [2]; 21.8 µM in [3]; 22.7 µM in test [4]; 20.1 µM in [5]; 11.5 µM in test [6]. The TGI in test [7] is 20.5 µM; in test [8] it was 16.6 µM; in [9], 24 µM; in test [10], 20.8 µM; in test [11], 3.58 µM; in [12], 4.78 µM. In addition, the TGI in [13] was 27.8 µM; in [14] it was 23.4 µM; in test [15], 9.82 µM; in test [16], 15 µM.
